Our source for the IC50 values is ChEMBL document CHEMBL4715893, “Inhibitory effects of sesquiterpene lactones from the Indonesian marine sponge Lamellodysidea cf. herbacea on bone morphogenetic protein-induced osteoblastic differentiation” (Bioorg Med Chem Lett, 2021).

Test [1] deals with C2C12. In words: Cytotoxicity against mouse C2C12 cells assessed as reduction in cell viability by MTT assay. It is filed as cell-based.
A short description of test [2]: Inhibition of BMP-induced mouse C2C12 cells osteoblastic differentiation assessed as reduction in alkaline phosphatase activity. It is filed as functional, cell-based.

pIC50: −log10 of the molar value. Where only a bound is given, the exact number is not on record here.

On to `C=C1C[C@@H]2C[C@@](C)(CCC3=CC(=O)O[C@@]32OC)[C@H]1C`, for which the negative-log IC50 (pIC50) in test [1] was less than 4.12; in test [2], 4.29.

Consider `COC1C=C(CC[C@]2(C)C(C)=CCC[C@H]2C)C(=O)O1` (stereo partly specified), for which the results for the pIC50 in test [1] and in test [2] were less than 4.42 and 4.70, respectively.

`CC1=CCC[C@@H](C)[C@]1(C)CCC1=CC(=O)OC1O` (stereo partly specified): the pIC50 in test [1] is less than 4.40; in test [2] it was 5.32.
